Laboratory results taken from patent publication US12558366B2, “Bacterial DNA gyrase inhibitors and methods of use thereof” (THE FLORIDA INTERNATIONAL UNIVERSITY BOARD OF TRUSTEES, priority 2021, dated 2026).
Values after ≈ are worked out from the molar mass of the structure shown. “Also recorded” adds a separate entry of the source. Like-named read-outs stand apart in the source and are kept apart here.

What was measured:
E. coli DNA gyrase [1] = target: T1, E. coli DNA gyrase (Escherichia coli, UniProt P0AES4+P0AES6); assay: DNA gyrase mediated DNA cleavage assay; assay type: biochemical; conditions: plasmid pBR322
Experimental: 250 ng of supercoiled pBR322 plasmid were incubated with 50 nM of E. coli DNA gyrase in reactions containing 35 mM Tris-HCl, 24 mM KCl, 4 mM MgCl2, 2 mM DTT, 0.1 mg/mL BSA, 6.5% glycerol, and 1.75 mM ATP, in presence of 200 μM of compounds, at 37° C. for 15 min. Then, 0.2% (w/v) of SDS and 0.1 mg/mL proteinase K were added, and samples were incubated at 37° C. for 1 h. […] Samples were examined by electrophoresis in 1% w/v agarose gel containing 0.5 μg/mL ethidium bromide and photographed under UV light.

E. coli (ATCC 25922) = assay: Minimum inhibitory concentration, E. coli; assay type: cell-based; conditions: for MIC: Escherichia coli, ATCC25922, read-out: Minimum Inhibitory Concentration E. coli
Experimental: (§1) Antibacterial minimum inhibitory concentrations (MICs) were obtained from three independent experiments using broth microdilution methods in 96-well plates according to Clinical and Laboratory Standards Institute guidelines. Cells were culture from singles colonies in MHIIB medium for 24 h at 37° C. in agitation (200 RPM). The cultures were then diluted using the same media to reach an OD600 of 0.1. Then, 50 μL of the diluted cultures were added to the plates holding 50 μL of serially diluted compounds in MHIIB. The plates were incubated at 37° C. for 20 h. The starting inoculum was fixated to 10^5 colony-forming units per ml.

E. coli imp = assay: microbe, parasite or virus in culture; assay type: cell-based; conditions: Escherichia coli, read-out: Minimum Inhibitory Concentration E. coli imp
Experimental: as §1

S. aureus (ATCC 14775) = assay: Minimum inhibitory concentration, S. aureus; assay type: cell-based; conditions: for MIC: Staphylococcus aureus
Experimental: as §1

MRSA (ATCC BAA44) = assay: microbe, parasite or virus in culture; assay type: cell-based, S. aureus; conditions: for MIC: Staphylococcus aureus
Experimental: as §1

B. subtilis (ATCC 6633) = assay: Minimum inhibitory concentration, B. subtilis; assay type: cell-based; conditions: for MIC: Bacillus subtilis, ATCC6633, Tables 3a-3c
Experimental: as §1

E. coli DNA gyrase [2] = target: T1, E. coli DNA gyrase; assay: Agarose gel-based DNA gyrase inhibition assays; assay type: biochemical; conditions: 200 μM of compounds
Experimental: 100 ng of DNA gyrase was used to supercoil the rx pAB1 in the presence of different concentrations of a gyrase inhibitor. […] Samples were analyzed by electrophoresis in 1% w/v agarose gels followed by ethidium bromide staining and photographed under UV light.

E. coli DNA gyrase [3] = target: T1, E. coli DNA gyrase; assay: E. coli DNA gyrase inhibition (agarose gel-based and/or SDFQ-based, not specified per value); assay type: biochemical
Mtb DNA gyrase = Mtb DNA gyrase (Mycobacterium tuberculosis, UniProt P9WG45+P9WG47); assay: Mtb DNA gyrase inhibition; assay type: biochemical
Mtb = Mtb inhibition (antibacterial activity); assay type: cell-based, Mycobacterium tuberculosis; parameters: % Mtb inhibition: concentration or dose not given beside the values; conditions: for % Mtb inhibition: Table 5
J774 = assay: Cytotoxicity in J774 cells; assay type: cell-based; conditions: for cytotoxicity: J774, 200 μM; for IC50: highest concentration 200 μM
HepG2 = assay: Cytotoxicity in HepG2 cells; assay type: cell-based; conditions: for cytotoxicity: HepG2, 200 μM; for IC50: highest concentration 200 μM
E. coli DNA gyrase [4] = target: T1, E. coli DNA gyrase; assay: E. coli DNA gyrase ATPase assays; assay type: biochemical
Experimental: E. coli DNA gyrase ATPase assays were performed in 60 μl, of 1×gyrase ATPase buffer (10 mM Tris.HCl (pH 7.5), 0.2 mM EDTA, 1 mM magnesium chloride, 1 mM DTT, and 2% (w/v) glycerol) containing 50 nM E. coli DNA gyrase, 200 ng rx pAB1, 0.8 mM Phosphoenol pyruvate, 1.2 units of Pyruvate kinase, 1.7 units of lactate dehydrogenase, and 0.4 mM of NADH at 37° C. After the reaction mixtures are incubated on ice for 5 minutes, 2 mM of ATP is added to initiate the reaction. Absorbance at OD340 nm is monitored for up to 30 minutes at 37° C. in a spectrophotometer.

[5] = target: human DNA topoisomerase 2α (Homo sapiens, UniProt P11388); assay: Human DNA topoisomerase 2α-mediated DNA cleavage assays; assay type: biochemical; conditions: plasmid pBR322
E. coli DNA gyrase [6] = target: T1, E. coli DNA gyrase; assay: SDFQ HTS assay of E. coli DNA gyrase (1536-well); assay type: biochemical; conditions: read-out: inhibition activities against E. coli DNA gyrase
Experimental: SDFQ HITS primary assay using pAB1_FL905 was performed in 2 μL of (1×DNA gyrase buffer: 20 mM Tris-Acetate pH 7.9, 50 mM KAc, 10 mM MgCl2, 2 mM DTT, 1 mM ATP, 0.1 mg/ml. BSA). […] 3) Spun plate at 800 rpm for 30 seconds. […] SDFQ HTS secondary assay using pAB1_FL924 was performed in 2 μL of (1×DNA gyrase buffer: 20 mM Tris-Acetate pHI 7.9, 50 mM KAc, 10 mM MgCl2, 2 mM DTT, 1 mM ATP, 0.1 mg/mL BSA). […] 3) Spun plate at 800 rpm for 30 seconds.

[7] = ATCC14775, Tables 3a-3c, read-out: Minimum Inhibitory Concentration S. aureus
[8] = read-out: Minimum Inhibitory Concentration S. aureus MRSA
[9] = Table 2 values, read-out: IC50 ( ≤15 μM) IC50

T1 sequence (P0AES4 whole entry, one chain of several): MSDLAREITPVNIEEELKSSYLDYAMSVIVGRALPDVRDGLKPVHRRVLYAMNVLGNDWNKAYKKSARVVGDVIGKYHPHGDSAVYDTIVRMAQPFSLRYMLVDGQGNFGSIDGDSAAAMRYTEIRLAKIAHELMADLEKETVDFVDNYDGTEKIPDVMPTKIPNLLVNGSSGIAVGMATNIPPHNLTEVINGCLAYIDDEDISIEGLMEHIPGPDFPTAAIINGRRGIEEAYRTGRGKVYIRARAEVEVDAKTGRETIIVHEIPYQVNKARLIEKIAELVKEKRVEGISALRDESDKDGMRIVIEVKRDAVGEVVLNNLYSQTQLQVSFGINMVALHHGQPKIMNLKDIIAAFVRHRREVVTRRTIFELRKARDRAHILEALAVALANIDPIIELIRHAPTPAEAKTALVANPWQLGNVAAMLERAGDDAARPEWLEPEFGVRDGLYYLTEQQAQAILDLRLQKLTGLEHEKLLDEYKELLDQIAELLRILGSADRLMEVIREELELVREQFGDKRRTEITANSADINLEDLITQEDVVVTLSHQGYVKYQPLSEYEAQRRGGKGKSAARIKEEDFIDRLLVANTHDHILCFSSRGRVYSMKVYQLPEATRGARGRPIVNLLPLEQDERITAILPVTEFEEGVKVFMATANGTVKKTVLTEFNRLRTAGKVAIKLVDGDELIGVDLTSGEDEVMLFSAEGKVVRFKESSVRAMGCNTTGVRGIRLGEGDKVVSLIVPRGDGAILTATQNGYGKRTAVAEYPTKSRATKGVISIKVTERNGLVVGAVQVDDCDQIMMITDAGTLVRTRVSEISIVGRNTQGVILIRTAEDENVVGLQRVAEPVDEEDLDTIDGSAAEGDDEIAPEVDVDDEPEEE
Chain of Mtb DNA gyrase (P9WG45 whole entry): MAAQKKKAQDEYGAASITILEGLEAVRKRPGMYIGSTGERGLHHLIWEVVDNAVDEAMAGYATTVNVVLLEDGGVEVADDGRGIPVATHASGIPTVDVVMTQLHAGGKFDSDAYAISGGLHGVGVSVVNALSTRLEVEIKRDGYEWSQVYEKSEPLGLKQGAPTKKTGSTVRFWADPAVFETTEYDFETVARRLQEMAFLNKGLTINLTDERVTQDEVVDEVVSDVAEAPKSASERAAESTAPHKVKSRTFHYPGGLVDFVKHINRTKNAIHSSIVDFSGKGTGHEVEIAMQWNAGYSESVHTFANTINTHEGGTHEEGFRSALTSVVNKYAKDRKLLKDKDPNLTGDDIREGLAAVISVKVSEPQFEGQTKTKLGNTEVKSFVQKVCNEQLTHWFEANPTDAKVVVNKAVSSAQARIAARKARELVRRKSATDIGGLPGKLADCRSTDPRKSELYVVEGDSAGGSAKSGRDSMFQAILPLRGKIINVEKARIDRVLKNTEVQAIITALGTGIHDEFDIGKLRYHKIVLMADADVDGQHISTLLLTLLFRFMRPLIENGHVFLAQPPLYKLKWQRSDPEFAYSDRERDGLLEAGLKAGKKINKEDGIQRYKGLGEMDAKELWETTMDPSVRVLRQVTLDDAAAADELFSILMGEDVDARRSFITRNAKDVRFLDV
Chain of Mtb DNA gyrase (P9WG47 whole entry): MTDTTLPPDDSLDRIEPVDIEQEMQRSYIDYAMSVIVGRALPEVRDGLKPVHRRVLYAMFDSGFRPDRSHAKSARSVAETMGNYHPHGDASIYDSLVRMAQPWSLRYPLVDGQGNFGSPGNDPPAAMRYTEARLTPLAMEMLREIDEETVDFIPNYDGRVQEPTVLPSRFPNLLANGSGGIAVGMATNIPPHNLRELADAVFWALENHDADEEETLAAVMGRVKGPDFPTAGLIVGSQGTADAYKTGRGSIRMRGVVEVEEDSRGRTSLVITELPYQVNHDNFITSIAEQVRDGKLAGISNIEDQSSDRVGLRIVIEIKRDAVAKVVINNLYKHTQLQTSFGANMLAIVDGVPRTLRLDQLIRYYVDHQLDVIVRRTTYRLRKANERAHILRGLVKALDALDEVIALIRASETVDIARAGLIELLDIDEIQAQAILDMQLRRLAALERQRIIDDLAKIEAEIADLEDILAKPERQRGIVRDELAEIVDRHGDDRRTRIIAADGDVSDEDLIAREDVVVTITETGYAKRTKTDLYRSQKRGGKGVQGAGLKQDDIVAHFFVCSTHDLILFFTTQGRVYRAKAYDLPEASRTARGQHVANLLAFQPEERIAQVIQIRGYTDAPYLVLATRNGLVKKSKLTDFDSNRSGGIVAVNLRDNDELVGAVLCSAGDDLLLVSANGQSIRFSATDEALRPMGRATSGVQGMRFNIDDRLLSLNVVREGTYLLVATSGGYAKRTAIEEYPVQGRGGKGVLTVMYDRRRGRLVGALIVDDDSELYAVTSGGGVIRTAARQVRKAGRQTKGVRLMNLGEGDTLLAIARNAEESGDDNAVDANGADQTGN
Chain of human DNA topoisomerase 2α (P11388 whole entry): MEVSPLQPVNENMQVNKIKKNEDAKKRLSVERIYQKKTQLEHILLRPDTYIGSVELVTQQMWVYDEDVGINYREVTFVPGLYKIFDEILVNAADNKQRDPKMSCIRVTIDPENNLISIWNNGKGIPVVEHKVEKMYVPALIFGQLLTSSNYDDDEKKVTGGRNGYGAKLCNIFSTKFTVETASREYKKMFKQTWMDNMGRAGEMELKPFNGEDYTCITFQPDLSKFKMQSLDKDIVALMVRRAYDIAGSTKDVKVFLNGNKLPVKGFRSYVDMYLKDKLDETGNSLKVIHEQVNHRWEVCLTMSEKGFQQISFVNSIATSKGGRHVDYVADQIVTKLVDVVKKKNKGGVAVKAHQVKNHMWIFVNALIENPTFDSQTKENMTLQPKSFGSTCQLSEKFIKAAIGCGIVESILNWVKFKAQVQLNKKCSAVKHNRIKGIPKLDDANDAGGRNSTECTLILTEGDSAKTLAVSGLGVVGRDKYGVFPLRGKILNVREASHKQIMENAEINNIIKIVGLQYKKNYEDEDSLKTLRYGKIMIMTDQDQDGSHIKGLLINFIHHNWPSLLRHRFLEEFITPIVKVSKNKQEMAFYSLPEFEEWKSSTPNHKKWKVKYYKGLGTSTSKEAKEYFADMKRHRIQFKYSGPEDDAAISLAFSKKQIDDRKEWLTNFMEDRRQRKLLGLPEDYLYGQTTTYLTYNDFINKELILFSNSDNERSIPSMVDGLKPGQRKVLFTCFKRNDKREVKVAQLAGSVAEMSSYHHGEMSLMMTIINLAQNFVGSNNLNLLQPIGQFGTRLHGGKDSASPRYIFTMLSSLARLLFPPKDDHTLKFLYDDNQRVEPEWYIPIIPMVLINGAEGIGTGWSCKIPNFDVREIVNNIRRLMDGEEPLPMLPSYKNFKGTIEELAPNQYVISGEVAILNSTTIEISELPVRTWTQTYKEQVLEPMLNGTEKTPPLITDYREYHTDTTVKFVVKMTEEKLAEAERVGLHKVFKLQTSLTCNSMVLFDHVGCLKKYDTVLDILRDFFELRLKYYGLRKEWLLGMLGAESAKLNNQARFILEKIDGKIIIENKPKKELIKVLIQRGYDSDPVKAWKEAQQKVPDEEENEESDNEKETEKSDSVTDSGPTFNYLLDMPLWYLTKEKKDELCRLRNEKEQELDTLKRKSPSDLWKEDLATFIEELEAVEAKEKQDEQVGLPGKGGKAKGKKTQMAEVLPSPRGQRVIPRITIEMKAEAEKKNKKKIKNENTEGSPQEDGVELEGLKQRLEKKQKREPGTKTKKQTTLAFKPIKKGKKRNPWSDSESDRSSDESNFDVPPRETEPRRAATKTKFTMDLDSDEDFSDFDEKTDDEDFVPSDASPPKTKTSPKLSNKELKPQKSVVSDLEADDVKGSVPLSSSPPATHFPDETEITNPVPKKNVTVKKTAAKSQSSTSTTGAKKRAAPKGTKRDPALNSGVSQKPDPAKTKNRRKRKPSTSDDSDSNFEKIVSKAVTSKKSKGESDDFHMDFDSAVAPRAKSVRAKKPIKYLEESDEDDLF

CC(OC(=O)c1cc(O)c2ccccc2c1O)C(=O)Nc1ccc(C(N)=O)cc1 (centres unmarked) [Compound 40, 1-[(4-carbamoylphenyl)carbamoyl]ethyl 1,4-dihydroxynaphthalene-2-carboxylate]
DNA gyrase-mediated double stranded DNA breaks / DNA nicking (E. coli DNA gyrase [1]): causes DNA gyrase-mediated double stranded DNA breaks and DNA nicking; also recorded: causes gyrase-mediated DNA double-stranded breaks and single-stranded nicks; also recorded: bacterial DNA gyrase poison | MIC (E. coli (ATCC 25922)): > 200 µM | MIC (E. coli imp): > 200 µM | MIC (S. aureus (ATCC 14775); [7]): > 200 µM | MIC (MRSA (ATCC BAA44); [8]): > 200 µM | anti Bacillus subtilis activities at (B. subtilis (ATCC 6633)): 39 µg/mL

Cc1c(CCC(=O)O)c(=O)oc2cc3occ(-c4ccc(Br)cc4)c3cc12 [Compound 46]
inhibition of E. coli DNA gyrase activities (E. coli DNA gyrase [2]): completely inhibited | IC50 (E. coli DNA gyrase [3]): 11.4 µM | inhibition of E. coli DNA gyrase activities (E. coli DNA gyrase [3]): potent bacterial DNA gyrase inhibitors | IC50 (E. coli DNA gyrase [3]; [9]): 11.2 µM | IC50 (Mtb DNA gyrase; Table 5): 75 µM | MIC (E. coli (ATCC 25922)): > 200 µM | MIC (E. coli imp): 6.25 µM (≈ 2.67 µg/mL) | MIC (S. aureus (ATCC 14775); ATCC14775, Table 5, read-out: MIC (μM) SA): > 200 µM | MIC (S. aureus (ATCC 14775); [7]): > 200 µM | MIC (MRSA (ATCC BAA44); read-out: MIC (μM) MRSA): > 200 µM | MIC (MRSA (ATCC BAA44); [8]): > 200 µM | MIC (B. subtilis (ATCC 6633)): 6.25 µM (≈ 2.67 µg/mL) | activity against Mtb (Mtb): most active for Mtb | inhibition at 20 µM (Mtb; Mycobacterium tuberculosis, read-out: % inhibition (20 μM), 20 μM, Table 6): 82.3% | cytotoxicity (J774): no cytotoxicity evident | IC50 (J774; Mus musculus, J774): > 200 µM | cytotoxicity (HepG2): no cytotoxicity evident | IC50 (HepG2; Homo sapiens, HepG2): > 200 µM

Cc1c(CCC(=O)O)c(=O)oc2c(C)c3occ(-c4ccc(Br)cc4)c3cc12 [Compound 48]
IC50 (E. coli DNA gyrase [3]; [9]): 4.28 µM | mode of inhibition (ATP competitive) (E. coli DNA gyrase [4]): ATP competitive inhibitor | MIC (E. coli (ATCC 25922)): > 200 µM | MIC (E. coli imp): > 200 µM | MIC (B. subtilis (ATCC 6633)): > 200 µM | % Mtb inhibition (Mtb): 38.6%

Cc1c(C)c2cc3c(-c4ccc(Br)cc4)coc3c(C)c2oc1=O [Compound 118]
inhibition of E. coli DNA gyrase activities (E. coli DNA gyrase [3]): All psoralen derivatives inhibited E. coli and Mtb DNA gyrase activities except compounds 118 and 122 | inhibition of Mtb DNA gyrase activities (Mtb DNA gyrase): All psoralen derivatives inhibited E. coli and Mtb DNA gyrase activities except compounds 118 and 122 | MIC (S. aureus (ATCC 14775); ATCC14775, read-out: Minimum Inhibitory Concentration S. aureus): 200 µM (≈ 76.6 µg/mL) | MIC (MRSA (ATCC BAA44); [8]): 200 µM (≈ 76.6 µg/mL) | % Mtb inhibition (Mtb): 21.8%

Cc1c(CCC(=O)O)c(=O)oc2c(C)c3occ(-c4ccc(-c5ccccc5)cc4)c3cc12 [Compound 119]
MIC (E. coli (ATCC 25922)): > 200 µM | MIC (E. coli imp): > 200 µM | MIC (B. subtilis (ATCC 6633)): > 200 µM | activity against Mtb (Mtb): most active for Mtb | cytotoxicity (J774): no cytotoxicity evident | cytotoxicity (HepG2): no cytotoxicity evident

Cc1coc2cc3oc(=O)c(CCC(=O)O)c(C)c3cc12 [Compound 122]
inhibition of E. coli DNA gyrase activities (E. coli DNA gyrase [3]): All psoralen derivatives inhibited E. coli and Mtb DNA gyrase activities except compounds 118 and 122 | inhibition of Mtb DNA gyrase activities (Mtb DNA gyrase): All psoralen derivatives inhibited E. coli and Mtb DNA gyrase activities except compounds 118 and 122 | MIC (S. aureus (ATCC 14775); [7]): 200 µM (≈ 57.3 µg/mL) | MIC (MRSA (ATCC BAA44); [8]): 200 µM (≈ 57.3 µg/mL) | % Mtb inhibition (Mtb): 15.7%

Cc1c(CCC(=O)O)c(=O)oc2c(C)c3occ(-c4ccc5ccccc5c4)c3cc12 [Compound 124]
MIC (E. coli (ATCC 25922)): > 200 µM | MIC (E. coli imp): > 200 µM | activity against Mtb (Mtb): most active for Mtb | cytotoxicity (J774): no cytotoxicity evident | cytotoxicity (HepG2): no cytotoxicity evident

N=C(N)Nc1nc(-c2ccccc2)c2cc(Cl)ccc2n1 [Compound 154, N-(6-chloro-4-phenylquinazolin-2-yl)guanidine]
IC50 (E. coli DNA gyrase [3]; [9]): 3.12 µM | DNA gyrase-mediated double stranded DNA breaks / DNA nicking (E. coli DNA gyrase [1]): causes the gyrase-mediated DNA double-stranded breaks and single-stranded nicks; also recorded: bacterial DNA gyrase poison | human topoisomerase 2α-mediated DNA nicks and double-stranded breaks [5]: causes the human topoisomerase 2α-mediated DNA nicks and double-stranded breaks | antibacterial activities against E. coli (E. coli (ATCC 25922); wildtype strain ATCC 25922): significant antibacterial activities | MIC (E. coli imp): 50 to 100 µM (≈ 14.9 to 29.8 µg/mL) | growth inhibition of S. aureus (S. aureus (ATCC 14775)): significant antibacterial activities | growth inhibition of MRSA (MRSA (ATCC BAA44)): significant antibacterial activities

O=C(O)CCNc1ccc(NCCC(=O)O)c2c1C(=O)c1ccccc1C2=O [Compound 173, 3-({4-[(2-carboxyethyl)amino]-9,10-dioxo-9,10-dihydroanthracen-1-yl}amino)propanoic acid]
DNA gyrase-mediated double stranded DNA breaks / DNA nicking (E. coli DNA gyrase [1]): cause DNA nicking

O=C1C=C(NCCc2cc(Br)c(O)c(Br)c2)C(=O)c2ncccc21 [Compound 232, 7-((2-(3,5-Dibromo-4-hydroxyphenyl)ethyl)amino)-5,8-quinolinedione]
DNA gyrase-mediated double stranded DNA breaks / DNA nicking (E. coli DNA gyrase [1]): cause DNA nicking

Cc1cc(O)c2c(c1)C(=O)c1cc(O)cc(O)c1C2=O [Compound 242, Emodin]
inhibition at 5 µM (E. coli DNA gyrase [6]): > 40%

CNC(=O)[C@H]1O[C@@H](n2cnc3c(NCc4cccc(I)c4)ncnc32)[C@H](O)[C@@H]1O [IB-MECA]
inhibition of the ATPase activities of E. coli DNA gyrase (E. coli DNA gyrase [4]): inhibition of the ATPase activities | mode of inhibition (ATP competitive) (E. coli DNA gyrase [4]): ATP competitive inhibitors | inhibition of Mtb DNA gyrase activities (Mtb DNA gyrase): did not inhibit

O=S(=O)(Cl)c1ccc(Oc2ccc(S(=O)(=O)Cl)cc2)cc1 [NSC212]
% inhibition (20 μM) (Mtb; 20 μM, Table 6): 84.6% | IC50 (J774): > 200 µM | IC50 (HepG2): > 200 µM

Sc1cccc2c(S)cccc12 [NSC229]
% inhibition (20 μM) (Mtb; 20 μM, Table 6): 99.3% | IC50 (J774): > 200 µM | IC50 (HepG2): > 200 µM

CNC(=O)[C@H]1O[C@@H](n2cnc3c(NCc4cccc(I)c4)nc(Cl)nc32)[C@H](O)[C@@H]1O [chloro-IB-MECA, reference compound]
inhibition of the ATPase activities of E. coli DNA gyrase (E. coli DNA gyrase [4]): inhibition of the ATPase activities | mode of inhibition (ATP competitive) (E. coli DNA gyrase [4]): ATP competitive inhibitors | inhibition of Mtb DNA gyrase activities (Mtb DNA gyrase): did not inhibit | DNA gyrase-mediated double stranded DNA breaks / DNA nicking (E. coli DNA gyrase [1]): did not DNA double stranded DNA 10 breaks

CCn1cc(C(=O)O)c(=O)c2cc(F)c(N3CCNC(C)C3)c(F)c21 (centres unmarked) [lomefloxacin]
inhibition at 5 µM (E. coli DNA gyrase [6]): > 40%

Cc1ccc(C(=O)Nc2ccc(S(=O)(=O)O)c3cc(S(=O)(=O)O)cc(S(=O)(=O)O)c23)cc1NC(=O)c1cccc(NC(=O)Nc2cccc(C(=O)Nc3cc(C(=O)Nc4ccc(S(=O)(=O)O)c5cc(S(=O)(=O)O)cc(S(=O)(=O)O)c45)ccc3C)c2)c1 [suramin]
inhibition at 5 µM (E. coli DNA gyrase [6]): > 40%

N[C@@H]1[C@H]2CN(c3nc4c(cc3F)c(=O)c(C(=O)O)cn4-c3ccc(F)cc3F)C[C@@H]12 [trovafloxacin]
inhibition at 5 µM (E. coli DNA gyrase [6]): > 40%
